Data taken from patent US4764506A, “N^6 -(benzothien-3-yl)ethyl adenosine; N^6 -(benzothien-3-yl)ethyl adenosine, S-oxide; and N^6 -(benzothien-3-yl)ethyl S,S-dioxide adenosine” (Warner-Lambert Company, priority 1986, dated 1988).
pIC50: −log10 of the molar value.

Legend:
adenosine A1 receptor = target: T1, adenosine A1 receptor (Rattus norvegicus, UniProt P25099); assay: Adenosine Receptor Binding--A1 Receptor Affinity (RBA1), [3H]-CHA displacement, rat whole brain membranes; set-up: species or system rat (Long Evans); settings: 1.0 nM [3H]-CHA, pH 7.7, 25° C., read-out: RBA-1
T1 construct: Whole brain minus cerebellum and brainstem from male Long Evans rats; from tissue; host or cells: rat whole brain minus cerebellum and brainstem, membranes (male Long Evans)
T1 sequence (P25099 1-326): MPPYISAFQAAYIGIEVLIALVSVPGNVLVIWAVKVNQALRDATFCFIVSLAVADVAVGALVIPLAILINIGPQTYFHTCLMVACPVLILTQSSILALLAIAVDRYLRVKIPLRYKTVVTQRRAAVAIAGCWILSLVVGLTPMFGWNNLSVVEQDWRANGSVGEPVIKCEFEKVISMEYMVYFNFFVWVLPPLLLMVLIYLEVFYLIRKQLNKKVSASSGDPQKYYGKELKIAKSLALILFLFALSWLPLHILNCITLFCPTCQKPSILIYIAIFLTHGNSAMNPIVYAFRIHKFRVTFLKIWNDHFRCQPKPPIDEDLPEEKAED
Experimental: Whole brain minus cerebellum and brainstem from male Long Evans rats (150-200 g) was homogenized in 30 volumes of ice-cold 0.05 M Tris-HCl buffer pH 7.7 using a Brinkman Polytron PT-10, (setting number 6 for 20 seconds) and centrifuged for ten minutes at 20,000×g (Sorvall RC-2), 4° C. The supernatant was discarded, and the pellet was resuspended and centrifuged as before. The pellet was resuspended in 20 ml Tris-HCl buffer containing two International Units/ml of adenosine deaminase (Sigma type III from calf intestinal mucosa), incubated at 37° C. for 30 minutes, then subsequently at 0° C. for ten minutes. The homogenate was again centrifuged, and the final pellet was resuspended in ice-cold 0.05 M Tris-HCl buffer pH 7.7 to a concentration of 20 mg/ml original wet tissue weight and used immediately.
Tissue homogenate (10 mg/ml) was incubated in 0.05 M Tris-HCl buffer pH 7.7 containing 1.0 nM [^3 H]-N^6 -cyclohexyladenosine (^3 H]-CHA) with or without test agents in triplicate for one hour at 25° C. Incubation volume was 2 ml. Unbound [^3 H]-CHA was separated by rapid filtration under reduced pressure through Whatman glass fiber (GF/B) filters. The filters were rinsed three times with 5 ml of ice cold 0.05 M Tris-HCl buffer pH 7.7. The radio-labeled ligand retained on the filter was measured by liquid scintillation spectrophotometry after shaking the filters for one hour or longer on a mechanical shaker in 10 ml of Beckman Ready-Solv HP scintillation cocktail.
Nonspecific binding was defined as the binding which occurred in the presence of 1 mM theophylline. The concentration of test agent which inhibited 50% of the specific binding (IC50) was determined by nonlinear computer curve fit. The Scatchard plot was calculated by linear regression of the line obtained by plotting the amount of radioligand bound [formula] Since the amount of radioligand bound was a small fraction of the total amount added, free radioligand was defined as the concentration (nM) of radioligand added to the incubation mixture. The Hill coefficient was calculated by linear regression of the line obtained by plotting the log of the bound radioligand vs the log of the [formula] The maximal number of binding sites (Bmax) was calculated from the Scatchard plot.

adenosine A2 receptor = target: T2, adenosine A2 receptor (Rattus norvegicus, UniProt P30543); assay: Adenosine Receptor Binding--A2 Receptor Affinity (RBA2), [3H]NECA displacement, rat striatal membranes; set-up: species or system rat (Sprague-Dawley); settings: 4 nM [3H]NECA, 50 nM N6-cyclopentyladenosine, rat striatum, 25° C., read-out: RBA-2
T2 construct: Brains were thawed and then kept on ice while the striata were dissected out; tissue Pel-Freez (Rogers, Ark.); host or cells: rat striatum, membranes (mixed sex Sprague-Dawley)
T2 sequence (P30543 whole entry): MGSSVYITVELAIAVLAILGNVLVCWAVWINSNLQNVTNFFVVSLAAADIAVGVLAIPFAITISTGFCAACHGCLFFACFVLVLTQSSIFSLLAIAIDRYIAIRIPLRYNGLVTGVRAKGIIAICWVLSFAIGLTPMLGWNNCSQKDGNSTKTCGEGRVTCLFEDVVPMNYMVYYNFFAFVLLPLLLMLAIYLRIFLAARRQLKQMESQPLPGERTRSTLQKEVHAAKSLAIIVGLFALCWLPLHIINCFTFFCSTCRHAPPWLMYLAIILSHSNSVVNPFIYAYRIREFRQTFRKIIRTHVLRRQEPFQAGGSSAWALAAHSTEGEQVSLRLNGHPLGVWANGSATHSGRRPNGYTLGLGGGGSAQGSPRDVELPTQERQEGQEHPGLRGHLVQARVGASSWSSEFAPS
Experimental: Brains from 200-500 g mixed sex Sprague-Dawley rats were purchased from Pel-Freez (Rogers, Ark.). Fresh brains from male Long-Evans hooded rats (Blue Spruce Farms, Altamont, N.Y.) gave essentially identical results. Brains were thawed and then kept on ice while the striata were dissected out. Striata were disrupted in 10 vol of ice-cold 50 mM Tris.HCl (pH 7.7 at 25° C., pH 8.26 at 5° C.) (Tris) for 30 seconds in a Polytron PT-10 (Brinkmann) at setting 5. The suspension was centrifuged at 50,000 xg for ten minutes, the supernatant discarded, the pellet resuspended in 10 vol ice-cold Tris as above, recentrifuged, resuspended at 1 g/5 ml, and stored in plastic vials at -70° C. (stable for at least six months). When needed, tissue was thawed at room temperature, disrupted in a Polytron, and kept on ice until used.
All incubations were for 60 minutes at 25° C. in 12×75 mm glass tubes containing 1 ml Tris with 5 mg original tissue weight of rat weight of rat striatal membranes, 4 nM [^3 H]-N-ethyl adenosine-5'-carboxamide ([^3 H]NECA), 50 nM N^6 -cyclopentyladenosine (to eliminate A1 receptor binding), 10 mM MgCl2, 0.1 units/ml of adenosine deaminase and 1% dimethylsulfoxide. N^6 -Cyclopentyladenosine was dissolved at 10 mM in 0.02N HCl and diluted in Tris. Stock solutions and dilutions of N^6 -cyclopentyladenosine could be stored at -20° C. for several months. Test compounds were dissolved at 10 mM in dimethylsulfoxide on the same day as the experiment, and diluted in dimethylsulfoxide to 100× the final incubation concentration. Control incubations received an equal volume (10 μl) of dimethylsulfoxide; the resulting concentration of dimethylsulfoxide had no effect on binding. [^3 H]NECA was diluted to 40 nM in Tris. The membrane suspension (5 mg/0.79 ml) contained sufficient MgCl2 and adenosine deaminase to give 10 mM and 0.1 units/ml, respectively, final concentration in the incubation. […]
Incubations were terminated by filtration through 2.4 cm GF/B filters under reduced pressure. […] Filters were put in scintillation vials, 8 ml of Formula 947 scintillation fluid added, and the vials left overnight, shaken, and counted in a liquid scintillation counter at 40% efficiency.
Nonspecific binding was defined as binding in the presence of 100 μM N^6 -cyclopentyladenosine, and specific binding was defined as total binding minus nonspecific binding. The IC50 was calculated by weighted nonlinear least squares curve-fitting to the mass-action equation. […]
Weighting factors were calculated under the assumption that the standard deviation was proportional to the predicted value of Y. Nonspecific binding was treated as a very large (infinite) concentration of drug in the computer analysis.

[1] = Mouse Activity and Screen Test Procedure (MAST): inhibition of spontaneous locomotion (actophotometer) and overall dose rating; format: in vivo, mouse (Swiss-Webster, male); settings: IP
Source text: (§1) The compounds of the invention are new chemical substances which are useful as pharmaceutical agents for the treatment of psychoses. The antipsychotic activity of representative compounds of the invention was established by the Mouse Activity and Screen Test Procedure (MAST) described below.
(§2) Nine unfasted Swiss-Webster male mice weighing 20-30 g are equally divided into three groups for each drug dose to be tested. That is, data for each dose level was generated by three separate groups of three mice each.
(§3) A minimum of three dose levels (10, 30, and 100 mg/kg) are tested for each drug. Treatments are administered intraperitoneally one hour prior to testing. All dosages are calculated as parent compound and given in volumes of 10 ml/kg. Compounds are dissolved or suspended in 0.2% Methocel. Control animals are injected with Methocel.
(§4) Testing: A two part testing procedure is started one hour postinjection. First, the screen test (ST) is performed (see Pharmac. Biochem. Behav. 6, 351-353, 1977). Briefly this test consists of placing mice on individual wire screens which are then rotated 180 degrees at the start of a 60 second observation period. The number of mice falling off the inverted screen is recorded.
Immediately following the screen test, the final phase of testing is initiated by placing each group of three mice in one actophotometer (Life Sciences, 22, 1067-1076, 1978). The actophotometer consists of a cylindrical chamber whose center is occupied by another cylinder which contains the illumination for six photocells located on the perimeter of the chamber. Six light-beam interruptions equal one count. Locomotor activity is recorded by computer at ten minute intervals for 60 minutes.
(§5) Data: The data obtained from the screen test are expressed as percent of mice falling off the screen. Data derived from locomotor activity of drug treated mice are compared to the activity of vehicle treated animals and are expressed as percent inhibition of spontaneous locomotion. All percentages reported for inhibition of locomotion (LI) are based upon data accumulated for one hour. Both phases of testing are graded: A=60-100%; C=31-59%; and N=0-30%. An overall dose rating is obtained by the following criteria:
(§6) LAD refers to the lowest dose at which an A rating is achieved. […] Utilizing this procedure, an overall dose rating of A was obtained for the noted compound at the indicated dose. The compounds are identified in the Examples.

[2] = Mouse Activity and Screen Test Procedure (MAST): screen test (mice falling off inverted screen); format: in vivo, mouse (Swiss-Webster, male); settings: IP
Source text: as §1, §2, §3, §4, §5, §6

[3] = Mouse Activity and Screen Test Procedure (MAST): inhibition of spontaneous locomotion (actophotometer) and overall dose rating; format: in vivo, mouse (Swiss-Webster, male); settings: PO
[4] = Mouse Activity and Screen Test Procedure (MAST): screen test (mice falling off inverted screen); format: in vivo, mouse (Swiss-Webster, male); settings: PO

pIC50 (adenosine A1 receptor)	pIC50 (adenosine A2 receptor)	Screen Test Failure ([2]; 3 mg/kg)	Screen Test Failure ([2]; 10 mg/kg)	Screen Test Failure ([2]; 30 mg/kg)	Screen Test Failure ([4]; 3 mg/kg)	Screen Test Failure ([4]; 10 mg/kg)	Screen Test Failure ([4]; 30 mg/kg)	Compound	Inhibition of Mouse Locomotion Activity ([1]; 3 mg/kg)	Inhibition of Mouse Locomotion Activity ([1]; 10 mg/kg)	Inhibition of Mouse Locomotion Activity ([1]; 30 mg/kg)	Inhibition of Mouse Locomotion Activity ([3]; 3 mg/kg)	Inhibition of Mouse Locomotion Activity ([3]; 10 mg/kg)	Inhibition of Mouse Locomotion Activity ([3]; 30 mg/kg)
8.11	6.46	0%	11%	11%	17%	0%	44%	COc1ccc2c(CCNc3ncnc4c3ncn4[C@@H]3O[C@H](CO)[C@@H](O)[C@H]3O)csc2c1 [Example 1, N-[2-(6-methoxybenzo[b]thien-3-yl)ethyl]adenosine]	23%	48%	92%	12%	42%	84%
8.37	6.38	0%	0%	0%				Cc1ccc2scc(CCNc3ncnc4c3ncn4[C@@H]3O[C@H](CO)[C@@H](O)[C@H]3O)c2c1 [Example 4, N-[2-(5-methylbenzo[b]thien-3-yl)ethyl]adenosine]	48%	63%	89%			
7.92	6.52	0%	11%	0%				OC[C@H]1O[C@@H](n2cnc3c(NCCc4csc5ccccc45)ncnc32)[C@H](O)[C@@H]1O [Example 2, N-[2-(benzo[b]thien-3-yl)ethyl]adenosine]	21%	30%	63%			
8.35	6.26	0%	0%	0%				OC[C@H]1O[C@@H](n2cnc3c(NCCc4csc5ccc(Cl)cc45)ncnc32)[C@H](O)[C@@H]1O [Example 3, N-[2-(5-chlorobenzo[b]thien-3-yl)ethyl]adenosine]	27%	54%	86%			
